Consider 4 compounds from patent US5859019A, “Methods for protecting against cardiac ischemia by administering adenosine A2a receptor antagonists” (priority 1997, dated 1999).

What all share (assay type): cell-based
Experiment [1] relates to ventricular cells cultured from chick embryos. Briefly: Hypoxia-induced injury / preconditioning of cultured ventricular cells (% cells killed, CK released). Conditions: for Ability to replace preconditioning hypoxia (protection against injury by ninety-minute hypoxia; % cells killed, CK released): agent given for 5 min in place of preconditioning hypoxia, before 90-min hypoxia, adenosine 10 μM, R-PIA 10 μM; for Ability to replace preconditioning hypoxia (protection against injury by ninety-minute hypoxia; % cells killed, CK released) / Effect on protection by preconditioning hypoxia (% cells killed, CK released): CGS21680 1 μM; for Effect on protection by preconditioning hypoxia (% cells killed, CK released): agent present during five-minute preconditioning hypoxia, CSC 1 μM, 8-SPT 100 μM, isoproterenol 0.3 μM, forskolin 1 μM, BayK 8644 0.1 μM. As to the method: Ventricular cells were cultured from chick embryos 14 days in ovo, according to a previously described procedure (20, 27). Cells were plated at a density of 400,000 cells per ml and cultivated in a humidified 5% CO2 -95% air mixture at 37° C. […] For preconditioning studies, the medium was changed to a HEPES-buffered medium containing (mM) 139 NaCl, 4.7 KCl, 0.5 MgCl2, 0.9 CaCl2, 5 HEPES (N-2-hydroxyethylpiperazine-N'-2-ethanesulfonic acid) and 2% fetal bovine serum, pH=7.4, 37° C. before exposing cells to the various conditions at 37° C. Control cells were maintained in the HEPES-buffered media under room air. Hypoxia was produced by placing the cells in a hypoxic incubator (NuAire) where O2 was replaced by N2. The % O2 was monitored by both an oxygen Fyrite Gas Analyzer (Bacharach) and an oxygen analyzer (Model OX630, Engineered Systems & Designs). Preconditioning was induced by exposing the cells to five minutes of hypoxia, termed preconditioning hypoxia, prior to a second ninety-minute hypoxia. Cells not subjected to preconditioning were exposed to ninety minutes of hypoxia only (nonpreconditioned cells). The extracellular pH was similarly maintained at 7.4 by HEPES in both preconditioned and nonpreconditioned cells. Determination of basal level of cell injury was made after parallel incubation of control cells under normal % O2. For preconditioned and nonpreconditioned cells, determination of cell injury was made at the end of the ninety-minute hypoxic period.
The extent of hypoxia-induced injury to the ventricular cell was quantitatively determined by the percentages of cells killed and by the amount of creatine kinase (CK) released into the media. To quantitate the % cells killed, cells were exposed to a trypsin-EDTA Hanks' balanced salt solution for 10 minutes for detachment after the various treatment, followed by centrifugation (300 × g for 10 minutes) and resuspension in culture media for counting in a hemocytometer. Only live cells sedimented and the cells counted represented those that survived (29). None of the sedimented cells subsequently counted included trypan blue. […] There was no protein or CK in the culture media following a second 300 × g centrifugation of resuspended cells previously treated with trypsin-EDTA. […] In contrast, the trypsin-EDTA media from cells exposed to 90 minutes of hypoxia contained substantial amount of proteins (0.15±0.03 mg, n=9) and CK activity (16±3 unit/mg protein, n=8). […] Because trypsin may cause further proteolysis of proteins and CK, the amount of protein and CK retained by the damaged cells in the trypsin-EDTA media may not accurately reflect those associated with the damaged cells. In support of the notion that exposure to 90 minutes of hypoxia caused significant cell injury and loss of membrane integrity, there was also marked release of LDH (hypoxia-exposed cells, 35.5±2.7, unit/mg, n=8, ±S.E. vs. control cells, 6.1±0.4 unit/mg, n=8) and proteins (hypoxia-exposed cells, 0.15±0.03 mg, n=8 vs. control cells, 0.034±0.01 mg, n=8) from the cells incubated under prolonged hypoxia. Thus, the cell viability assay separated out the hypoxia-damaged from the control normoxia-exposed cells. […] The amount of CK was measured as enzyme activity (unit/mg), and increases in CK activity above the control level were determined. The percentage of cells killed was calculated as the number of cells obtained from the control group (representing cells not subjected to any hypoxia or drug treatment) minus the number of cells from the treatment group divided by number of cells in control group multiplied by 100%.
To investigate the role of adenosine in mediating the preconditioning effect, the ventricular cells, instead of being exposed to the brief hypoxia, were incubated with adenosine (10 μM) for 5 minutes prior to the ninety minute hypoxia. In adenosine-treated cells, media were replaced with adenosine-free media for ten minutes prior to a ninety-minute hypoxic exposure. […]

Experiment [2] shares this test system. Briefly: Cyclic AMP level in cultured ventricular cells (radioimmunoassay). Conditions: Gallus gallus; isoproterenol 0.3 μM, forskolin 1 μM; n=6, ±S.E.; read-out: % increase in cAMP level. Here is the method:
(§1) Determination of ^45 Ca uptake was made according to a modification of previously described method (20). Cultures were incubated with L-(3, 4, 5-^3 H, N)-leucine (152.2 Ci/mmol) for a 24 hour prior to ^45 Ca uptake. [^3 H] leucine incorporated into the cellular protein allowed normalization of ^45 Ca content to mg cell protein. After incubation with ^45 Ca-containing medium, cells were then washed free of ^45 Ca and solubilized for 2 hours with 1% sodium dodecyl sulfate and 10 mM sodium borate and the levels of ^3 H and ^45 Ca were determined. For all data comparing the effect of different agents on ^45 Ca uptake, one-way ANOVA analysis followed by group comparison with t-test was carried out at each time point of the ^45 Ca uptake. Cyclic AMP level was determined according to a previously described radioimmunoassay (27).
A general note: Cyclic AMP is a second messenger, typically raised through Gs and lowered through Gi signalling.

For experiment [3] the test system is unchanged. Briefly: 45Ca uptake in cultured ventricular cells. Conditions: for Calcium influx into the cultured cells: isoproterenol 0.3 μM, forskolin 1 μM, BayK 8644 0.1 μM, data not shown. Here is the method: as §1

Molecules are shown by their SMILES.

For the compound `C=C[C@@]1(C)CC(=O)[C@]2(O)[C@@]3(C)[C@@H](O)CCC(C)(C)[C@@H]3[C@H](O)[C@H](OC(C)=O)[C@@]2(C)O1` [forskolin], in experiment [1], the “Ability to replace preconditioning hypoxia (protection against injury by ninety-minute hypoxia; % cells killed, CK released)” value was “Neither isoproterenol, forskolin nor BayK8644 had any effect on the level of protection”; the “Effect on protection by preconditioning hypoxia (% cells killed, CK released)” value (“Effect … (% cells killed, CK released)” below) was “caused an increase in % cells killed and amount of CK released”. The activation at 1 µM in experiment [2] is 54.8 ± 9.7%. Also, in experiment [3], the “Calcium influx into the cultured cells” value is “induced increased calcium influx”.

Take `CC(C)NCC(O)c1ccc(O)c(O)c1` (stereo not drawn) [isoproterenol]: in experiment [1], the “Ability to replace preconditioning hypoxia (protection against injury by ninety-minute hypoxia; % cells killed, CK released)” value was “Neither isoproterenol, forskolin nor BayK8644 had any effect on the level of protection”; the “Effect … (% cells killed, CK released)” value was “caused an increase in % cells killed and amount of CK released”. The activation at 0.3 µM in experiment [2] was 228 ± 31%. Besides, the “Calcium influx into the cultured cells” value in experiment [3] was “induced increased calcium influx”.

For `COC(=O)C1=C(C)NC(C)=C([N+](=O)[O-])C1c1ccccc1C(F)(F)F` (stereo not drawn) [BayK 8644], in experiment [1], the “Ability to replace preconditioning hypoxia (protection against injury by ninety-minute hypoxia; % cells killed, CK released)” value is listed as “Neither isoproterenol, forskolin nor BayK8644 had any effect on the level of protection”; the “Effect … (% cells killed, CK released)” value is “caused an increase in % cells killed and amount of CK released”. Further, the “Calcium influx into the cultured cells” value in experiment [3] is given as “induced increased calcium influx”.

`COC(=O)C1=C(C)NC(C)=C(C(=O)OC)C1c1ccccc1[N+](=O)[O-]` [nifedipine]: in experiment [1], the “Ability to replace preconditioning hypoxia (protection against injury by ninety-minute hypoxia; % cells killed, CK released)” value was “did not simulate preconditioning”. Moreover, in experiment [1] (nifedipine 1 μM during preconditioning hypoxia), the “Effect on attenuation of preconditioning by isoproterenol, forskolin and BayK 8644” value is listed as “abolished”. The “Effect on CGS21680-induced attenuation of preconditioning” value in experiment [1] (nifedipine 1 μM with CGS21680 during preconditioning hypoxia) is recorded as “abolished the CGS21680-induced attenuation of cardioprotection”. The “Effect on increase in calcium uptake by isoproterenol, forskolin and BayK 8644” value in experiment [3] (nifedipine) is on record as “blocked the increase in calcium uptake”.
